Columns and labels:
[1] = system: RAW264.7; assay: Inhibition of LPS/IFN gamma stimulated RAW264.7 cells determined by MTS assay; format: functional; conditions: Mus musculus
[2] = system: RAW264.7; assay: Suppression of nitric oxide production in the LPS/IFN gamma stimulated RAW264.7 cells; format: functional, cell-based; conditions: Mus musculus

CC[n+]1c(/C=C2\C=Cc3ccc(C)cc3N2CCCS(=O)(=O)O)sc2ccccc21
GI50 [1]: > 10 µM | IC50 [2]: 27.2 µM

CC[n+]1c(/C=C2\Sc3ccccc3N2CCC(=O)O)sc2ccccc21
GI50 [1]: > 10 µM | IC50 [2]: 11.5 µM

CC[n+]1c(/C=C(\C)Nc2ccccc2)sc2ccccc21
GI50 [1]: > 10 µM | IC50 [2]: 44.8 µM

CC[n+]1c(/C=C(\C)NCc2ccccc2)sc2ccccc21
GI50 [1]: > 10 µM | IC50 [2]: 7.61 µM

CCC(/C=C1\Sc2ccccc2N1CCCS(=O)(=O)O)=C\c1sc2ccccc2[n+]1CC
GI50 [1]: > 10 µM | IC50 [2]: 5.78 µM

CC[n+]1c(/C=C/c2ccc(N(C)C)cc2)sc2cc(NC(C)=O)ccc21
GI50 [1]: > 10 µM | IC50 [2]: 3.31 µM

CCN1/C(=C/C(N)=C/c2sc3ccccc3[n+]2CC)Sc2ccccc21
GI50 [1]: > 10 µM | IC50 [2]: 0.847 µM

CCN1C(=Cc2sc3ccccc3[n+]2C)C=Cc2cccc(C)c21
GI50 [1]: > 10 µM | IC50 [2]: 0.318 µM

CC[n+]1c(/C=C/c2ccc(N(C)C)cc2)sc2cc(C)ccc21
GI50 [1]: > 10 µM | IC50 [2]: 2.27 µM

CCC(/C=C1\Sc2ccc(Cl)cc2N1CC)=C\c1sc2ccc(Cl)cc2[n+]1CC
GI50 [1]: 9 µM | IC50 [2]: 0.741 µM

CCN1C(=Cc2sc3ccccc3[n+]2C)C=Cc2ccc(C)cc21
GI50 [1]: > 10 µM | IC50 [2]: 0.444 µM

CCN1/C(=C/C(C)=C/c2sc3ccccc3[n+]2CC)Sc2ccccc21
GI50 [1]: > 10 µM | IC50 [2]: 0.198 µM

CCC(/C=C1\Sc2ccccc2N1CC)=C\c1sc2ccccc2[n+]1CC
GI50 [1]: 5.5 µM | IC50 [2]: 0.062 µM

CC/C(=C\c1sc2ccc(OC)cc2[n+]1CCCS(=O)(=O)[O-])SC
GI50 [1]: > 10 µM | IC50 [2]: 66.1 µM

NC(=C\c1sc2ccccc2[n+]1CCCS(=O)(=O)O)/C=C1\Sc2ccccc2N1CCCS(=O)(=O)O
GI50 [1]: > 10 µM | IC50 [2]: 51.9 µM

CN1/C(=C/c2sc3ccccc3[n+]2C)Sc2ccccc21
GI50 [1]: > 10 µM | IC50 [2]: 4.69 µM

CC[n+]1c(/C=C(/C)SC)sc2ccc(OC)cc21
GI50 [1]: > 10 µM | IC50 [2]: 18.4 µM

CC/C(=C/c1sc2ccc(OC)cc2[n+]1CC)SC
GI50 [1]: > 10 µM | IC50 [2]: 3.64 µM

CCN1/C(=C/c2sc3ccccc3[n+]2CC)C=Cc2ccc(C)cc21
GI50 [1]: > 10 µM | IC50 [2]: 0.183 µM

CCCC[n+]1c(C=C2C=Cc3ccccc3N2CC)sc2ccccc21
GI50 [1]: 5.5 µM | IC50 [2]: 0.215 µM

CCN1/C(=C/C(=C/c2sc3ccccc3[n+]2CC)OC)Sc2ccccc21
GI50 [1]: > 10 µM | IC50 [2]: 0.461 µM

CN(C)c1ccc(/C=C/c2sc3ccc4ccccc4c3[n+]2C)cc1
GI50 [1]: > 10 µM | IC50 [2]: 2.16 µM

CC[n+]1c(/C=C2\C=Cc3ccc(C)cc3N2C)sc2ccccc21
GI50 [1]: > 10 µM | IC50 [2]: 0.253 µM

CC[n+]1c(/C=C2\C=Cc3cc(C)ccc3N2C)sc2ccccc21
GI50 [1]: > 10 µM | IC50 [2]: 0.178 µM

CCC(/C=C1\Sc2ccc(Cl)cc2N1C)=C\c1sc2ccc(Cl)cc2[n+]1C
GI50 [1]: 7.9 µM | IC50 [2]: 0.402 µM

CCN1/C(=C/C(=C/c2sc3ccccc3[n+]2CC)SC)Sc2ccccc21
GI50 [1]: > 10 µM | IC50 [2]: 0.637 µM

CCN1/C(=C/c2sc3ccccc3[n+]2CC)Sc2ccccc21
GI50 [1]: > 10 µM | IC50 [2]: 0.403 µM

CCC(/C=C1\Sc2ccccc2N1C)=C\c1sc2ccccc2[n+]1C
GI50 [1]: 5.5 µM | IC50 [2]: 0.055 µM

CCN1C(=Cc2sc3ccc(OC)cc3[n+]2CC)C=Cc2ccccc21
GI50 [1]: 9.3 µM | IC50 [2]: 1.06 µM

CCN1/C(=C/c2sc3cc(OC)c(OC)cc3[n+]2CC)C=Cc2ccccc21
GI50 [1]: > 10 µM | IC50 [2]: 0.684 µM

CCN1/C(=C/c2sc3ccc(Br)cc3[n+]2CC)C=Cc2ccccc21
GI50 [1]: > 10 µM | IC50 [2]: 0.241 µM

CN1/C(=C/C(=C/c2sc3ccccc3[n+]2C)C2CCC2)Sc2ccccc21
GI50 [1]: 6.5 µM | IC50 [2]: 0.662 µM

CC[n+]1c(/C=C(/C)SC)sc2ccccc21
GI50 [1]: > 10 µM | IC50 [2]: 24.2 µM

COc1ccc2sc(/C=C(\C)SC)[n+](CCCS(=O)(=O)[O-])c2c1
GI50 [1]: > 10 µM | IC50 [2]: 69.5 µM

CC[n+]1c(C=C2Sc3ccccc3N2CCO)sc2ccccc21
GI50 [1]: > 10 µM | IC50 [2]: 10.7 µM

CN(C)c1ccc(/C=C/c2sc3ccccc3[n+]2C)cc1
GI50 [1]: > 10 µM | IC50 [2]: 4.8 µM

CC[n+]1c(/C=C/c2ccc(N(C)C)cc2)sc2ccccc21
GI50 [1]: > 10 µM | IC50 [2]: 4.94 µM

CCN1/C(=C/c2sc3ccc(I)cc3[n+]2CC)C=Cc2ccccc21
GI50 [1]: > 10 µM | IC50 [2]: 0.259 µM

CCN1/C(=C/c2sc3ccccc3[n+]2CC)C=Cc2ccccc21
GI50 [1]: > 10 µM | IC50 [2]: 0.244 µM

CC[n+]1c(/C=C/c2ccc(N(C)C)cc2)sc2ccc(C(=O)OC)cc21
GI50 [1]: > 10 µM | IC50 [2]: 10.8 µM

CC(/C=C1\Sc2ccccc2N1CCO)=C\c1sc2ccccc2[n+]1CCO
GI50 [1]: > 10 µM | IC50 [2]: 20.2 µM

CCN1/C(=C/c2sc3cc(C)c(C)cc3[n+]2CC)C=Cc2ccccc21
GI50 [1]: 5.8 µM | IC50 [2]: 0.258 µM

O=S(=O)(O)CCCN1/C(=C/c2sc3ccccc3[n+]2CCCS(=O)(=O)O)C=Cc2ccccc21
GI50 [1]: > 10 µM | IC50 [2]: 64.6 µM

CCN1/C(=C/c2sc3ccccc3[n+]2CC)C=Cc2cc(NC(C)=O)ccc21
GI50 [1]: > 10 µM | IC50 [2]: 13.3 µM

CCCN1/C(=C/c2sc3ccccc3[n+]2CC)C=Cc2ccccc21
GI50 [1]: > 10 µM | IC50 [2]: 0.288 µM

CCN1/C(=C/c2sc3ccccc3[n+]2C)C=Cc2ccccc21
GI50 [1]: > 10 µM | IC50 [2]: 0.216 µM

CC[n+]1c(/C=C/c2ccc(N(C)C)cc2)sc2ccc(C)cc21
GI50 [1]: > 10 µM | IC50 [2]: 2.33 µM

CCN1/C(=C/c2sc3ccc(C)cc3[n+]2CC)C=Cc2ccccc21
GI50 [1]: > 10 µM | IC50 [2]: 0.295 µM

CC/C(=C\c1sc2ccc(OC)cc2[n+]1CC)SC
GI50 [1]: > 10 µM | IC50 [2]: 3.99 µM

Source: ChEMBL document CHEMBL1143526, “Benzothiazolium compounds: novel classes of inhibitors that suppress the nitric oxide production in RAW264.7 cells stimulated by LPS/IFNgamma” (Bioorg Med Chem Lett, 2005)
